Patent US8623919B2, “Method of synthesizing S-allyl-cysteine analogues and their therapeutic application in treating myocardial infarction” (Fudan University, priority 2007, dated 2014)

Key:
H9c2 cells [1] = experiment: LDH leakage of H9c2 cells injured by H2O2; format: cell-based; details: PAG group, PAG 10^−4 mol/L
Experimental: (§1) H9c2 cells were cultured in DMEM with 10% of fetal bovine serum, 37 degree C. and 5% CO2 incubator. The monolayer culture was split at a 1:4 ratio or harvested to perform experiments when confluence was 70-80%. Adjust the density of the cells to […] and inoculate the cells on a 96 well plate.
(§2) H2O2 injury (Model) group, no SAC analogues treatment, under H2O2 200 μmol/L for 2 hours.
(§3) PAG group, PAG 10^−4/mol/L
(§4) SPRC dosage groups: SPRC 1E-7, SPRC 1E-6, SPRC 1E-5, the cell groups were treated with SPRC dosages of 10^−7 mol/L, 10^−6 mol/L, 10^−5 mol/L respectively.
(§5) SPRC dosage+PAG groups: the cell group was treated with SPRC dosages of 10^−5 mol/L and PAG 10^−4 mol/L.
The cell samples (10^6 cells/sample) from each group were lysed under sterilized condition, and LDH contents in each samples were tested by pyruvic acid production method.

H9c2 cells [2] = experiment: MDA content of H9c2 cells injured by H2O2; format: cell-based; details: PAG group, PAG 10^−4 mol/L
Experimental: (§6) H9c2 cells were cultured same as Example 12, the cells were then divided into the groups same as Example 12.
(§7) The cells were lysed under sterilized condition, and lipid peroxidation experiments on the samples were performed. […] The effect of SPRC could be blocked by PAG, indicating SPRC mediates its effect on H9c2 cell by way of endogenous H2S.

H9c2 cells [3] = experiment: Mn-SOD activity of H9c2 cells injured by H2O2; format: cell-based; details: PAG group, PAG 10^−4 mol/L
Experimental: as §6, §7

H9c2 cells [4] = experiment: H9c2 cell viability by MTT method after H2O2 injury; format: cell-based; details: PAG group, PAG 10^−4 mol/L
Experimental: as §1
Control group, no SAC analogues treatment, no H2O2 injured process.
as §2, §3, §4, §5
H9c2 cell viability was assessed by MTT method. […] PAG is able to block the effect of SPRC.

rats following MI injury [5] = experiment: Infarct size after TTC staining in rats following MI injury; format: in vivo, SD rats; details: 50 mg/Kg/day intraperitoneal, 7 days before and 2 days after ligation, 48 h after surgery, saline 36.0±1.3%
Experimental: (§8) SPRC and SAC were dissolved in saline (vehicle). Male SD rats (weight 200-250 g) were randomly assigned to […] treatment groups: group (1) Sham group: Sham-treated with saline (n=4), (2) Sham+SPRC group: Sham-treated with SPRC (50 mg/Kg/day) (n=4), (3) Sham+SAC group: Sham-treated with SAC (50 mg/Kg/day) (n=4), (4) MI group: MI treated with saline (n=8), (5) MI+SPRC group: MI treated with SPRC (50 mg/Kg/day) (n=8), (6) MI+SAC group: MI treated with SAC (50 mg/Kg/day) (n=8). Rats were pre-treated for seven days with each SAC analogues respectively via an intraperitoneal injection once daily before they were used for MI model studies. […] Briefly, the rats were anesthetized with 7% choral hydrate (60 mg/kg intraperitoneal injection), endotracheally intubated and mechanically ventilated with room air, respiratory rate 100 breaths/min, tidal volume 2.5 ml with a rodent ventilator (DHX-150, China). ECG was recorded in the anaesthetized animal for a period of one minute using the Animal Mflab200 amplifier (Produced in China). A left thoracotomy was performed and the third intercostal space was exposed. […] Then incisions were sutured and the chests were closed. […] Forty eight hours after the surgery, ECG was recorded for each rat in each group. […] To evaluate the effect of SPRC and SAC on MI, infarct size were measured after TTC staining (FIG. 12).

rats following MI injury [6] = experiment: SOD activity in plasma of rats (sham or MI); format: in vivo, SD rats; details: 50 mg/Kg/day intraperitoneal
Experimental: (§9) Animals were assigned and prepared the same as in Example 7, and dosages of SPRC and SAC were used the same in this example as in Example 7.
(§10) Serum CK levels were detected with diagnostic kit (NJBI, China) according to the instructions. LDH were determined calorimetrically with a spectrophotometer. Lipid peroxidation was measured in terms of MDA content using the thiobarbituric acid (TBA) assay. […] With regard to lipid peroxidation, the levels of MDA in MI groups increased at 48 h after myocardial infarction. […] (FIG. 14)

rats following MI injury [7] = experiment: Plasma H2S levels in rats (sham or MI); format: in vivo, SD rats; details: 50 mg/Kg/day intraperitoneal
Experimental: as §9
(§11) The plasma levels of H2S in each treatment group were determined since CSE mediates the endogenous production of H2S in mammals. Plasma H2S concentrations in MI group rats at 48 h after MI induction were 34.7±5.6 μM (n=8). […] Left ventricular CSE activity was analyzed in the tissue homogenates from each treatment group (n=6). CSE activity was 1.58±0.15 μmol/g protein/hr in left the ventricular tissues in MI group and 2.19±0.32 μmol/g protein/hr in the MI+SAC treated rats.

rats following MI injury [8] = experiment: Serum LDH in rats (sham or MI); format: in vivo, SD rats; details: Sham rats; 50 mg/Kg/day intraperitoneal
Experimental: as §9, §10

CSE [9] = target: T1, CSE (Rattus norvegicus, UniProt P18757); experiment: Left ventricular CSE activity in tissue homogenates of rats; format: in vivo, SD rats; details: 50 mg/Kg/day; for CSE activity: left ventricle
T1 construct: from tissue; host or cells: rat left ventricle (homogenate), myocardial infarction model
Experimental: as §9, §11
SPRC administered rats had the highest CSE activity of 2.58±0.07 μmol/g protein/hr (p<0.01) (FIG. 15B). This observation correlated with the observed increases in H2S concentrations in the same treatment groups.

Bcl-2 = experiment: Western blot of Bcl-2 protein in left ventricle; format: in vivo, SD rats; details: MI rats, 50 mg/Kg/day, p<0.01
Excerpt: as §9

Bcl-2 mRNA = experiment: RT-PCR of Bcl-2 mRNA in left ventricle; format: in vivo, SD rats; details: MI rats, 50 mg/Kg/day, p>0.05
Excerpt: as §9
(§12) To further verify the effects of SPRC and SAC, the expressions of Bcl-2, Bax and CSE mRNA were accessed by RT-PCR (FIG. 17). An isoform of the CSE gene was detected (GenBank; access no. AY641456). The relative amounts of CSE mRNA in Left ventricular subjected to MI were increase 3.3-fold and 1.5-fold following SPRC and SAC exposure as compared to the MI group.

rats following MI injury [10] = experiment: MDA content (TBA assay) in rats (sham or MI); format: in vivo, SD rats; details: Sham rats; 50 mg/Kg/day intraperitoneal
Experimental: as §9, §10

Bax mRNA = experiment: RT-PCR of Bax mRNA in left ventricle; format: in vivo, SD rats; details: MI rats, 50 mg/Kg/day, p<0.05
Excerpt: as §9, §12

CSE [11] = experiment: Western blot of CSE protein in left ventricle; format: in vivo, SD rats; details: MI rats, 50 mg/Kg/day, p<0.01
Excerpt: as §9

Bax = experiment: Western blot of Bax protein in left ventricle; format: in vivo, SD rats; details: MI rats, 50 mg/Kg/day, p<0.01
Excerpt: as §9

CSE mRNA = experiment: RT-PCR of CSE mRNA in left ventricle; format: in vivo, SD rats; details: MI rats, 50 mg/Kg/day
Excerpt: as §9, §12

rats following MI injury [12] = experiment: ECG in rats following MI injury; format: in vivo, SD rats; details: 50 mg/Kg/day, day 10, 48 hr after the induction of MI
Experimental: as §8

rats following MI injury [13] = experiment: Serum CK in rats (sham or MI); format: in vivo, SD rats; details: Sham rats; 50 mg/Kg/day intraperitoneal
Experimental: as §9, §10

myocardial cells [14] = experiment: SOD activity (Hydroxylamine method) in hypoxia/reoxygenation injured myocardial cells; format: cell-based, Sprague-Dawley (SD) rat
Experimental: Myocardial cell samples were obtained from the same procedure of Example 1, the experiment groups were divided and hypoxia/reoxygenation experiments were performed on Control group, Vehicle group, SAC and analogue groups, same as the experiments in Example 1 with the same dosages and same conditions. Myocardial cells were obtained from each sample (10^6 myocardial cells/sample) from the Control group, Vehicle group, SAC and analogue groups. The cells were lysed under sterilized condition, and SOD (superoxide dismutase) activities in each sample of the cells were determined by Hydroxylamine method (a conventional method well known in the arts) using each microgram of protein per 1 milliliter reaction solution inhibits SOD activity to its 50% of original activity, in which the amount of SOD used in the reaction as standard of 1 unit of SOD activity.

myocardial cells [15] = experiment: Lipid peroxidation (MDA, TBA) in hypoxia/reoxygenation injured myocardial cells; format: cell-based, Sprague-Dawley (SD) rat; details: 10^−5 mol/L
Experimental: Myocardial cell samples were obtained from the same procedure of Example 1, the experiment groups were divided and hypoxia/reoxygenation experiments were performed on Control group, Vehicle group, SAC and analogue groups, same as the experiments in Example 1 with the same dosages and same conditions. Myocardial cells were obtained from each sample (10^6 myocardial cells/sample) from the Control group, Vehicle group, SAC and analogue groups. The cells were lysed under sterilized condition, and lipid peroxidation experiments on the samples were performed. Since oxygen free radical attacks poly unsaturated fatty acid in biomembrane, inducing lipid peroxidation and producing MDA (malondialdehyde). MDA can react with thiobarbituric acid (TBA), forms red product, which can be detected in spectrophotometer at 532 nm. […] The inhibition effect could be reversed by PAG.

T1 sequence (P18757 whole entry): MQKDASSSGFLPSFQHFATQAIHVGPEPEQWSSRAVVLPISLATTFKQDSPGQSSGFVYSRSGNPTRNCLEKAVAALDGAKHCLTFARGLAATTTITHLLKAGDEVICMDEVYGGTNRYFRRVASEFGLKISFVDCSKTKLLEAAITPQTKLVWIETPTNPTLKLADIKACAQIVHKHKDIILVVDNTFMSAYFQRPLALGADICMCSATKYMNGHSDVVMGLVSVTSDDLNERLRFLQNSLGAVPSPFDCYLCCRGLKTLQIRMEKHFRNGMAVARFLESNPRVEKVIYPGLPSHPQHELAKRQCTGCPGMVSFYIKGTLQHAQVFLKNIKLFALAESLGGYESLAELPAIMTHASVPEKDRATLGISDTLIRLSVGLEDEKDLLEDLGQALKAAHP

C#CCC(N)C(=O)O (racemic) [PAG, DL-propargylglycine, reference compound]
LDH Leakage (H9c2 cells [1]): 63.4 ± 1.2% | MDA Content (H9c2 cells [2]): 2.71 ± 0.26 nmol/mgprot | Mn-SOD Activity (H9c2 cells [3]): 7.57 ± 0.83 U/mgprot | H9c2 Cell Survive (H9c2 cells [4]): 58.9 ± 1.2%

C=CCSC[C@H](N)C(=O)O [SAC, S-Allyl-Cysteine]
infarct size/total area of myocardium (rats following MI injury [5]): 24.9±1.9% | SOD (rats following MI injury [6]; MI rats, 48 h after MI): 107.1 ± 5.4 U/ml | SOD (rats following MI injury [6]; Sham rats): 159.8 ± 4.8 U/ml | H2S concentration in plasma (rats following MI injury [7]; MI rats, 48 h after MI induction, 50 mg/kg/day): 61.1 ± 3.6 µM | H2S concentration in plasma (rats following MI injury [7]; Sham rats): 65.2 ± 4.4 µM | LDH (rats following MI injury [8]): 2599 ± 212 U/L | CSE activity (CSE [9]; MI rats): 2.19 ± 0.32 μM/mgprot | Left ventricular CSE activity (CSE [9]; MI rats, left ventricular tissue homogenates, MI group 1.58±0.15): 2.19±0.32 μmol/g protein/hr | CSE activity (CSE [9]; Sham rats): 2.31 ± 0.24 μM/mgprot | Bcl-2 protein expression (Bcl-2): up-regulated | Bcl-2 gene expression (Bcl-2 mRNA): no significant differences | MDA (rats following MI injury [10]): 3.57 ± 0.31 nmol/mL | Bax gene expression (Bax mRNA): down regulated | CSE protein expression (CSE [11]): up-regulated | Bax protein levels (Bax): down-regulated | relative amounts of CSE mRNA, increase as compared to the MI group (CSE mRNA): 1.5 fold | ST-segment elevation in ECG (rats following MI injury [12]): less elevated ST-segment | CK (rats following MI injury [13]): 0.250 ± 0.019 U/ml

CCCCSC[C@H](N)C(=O)O [SBC, S-butyl-L-cysteine]
Cu—Zn SOD activity in cytoplasm (myocardial cells [14]; 10^−5 mol/L): able to elevate | effect of PAG on elevating Cu—Zn SOD activity (myocardial cells [14]; with PAG): PAG also reversed the effect

CCSC[C@H](N)C(=O)O [SEC, S-ethyl-L-cysteine]
Mn-SOD activity in mitochondria (myocardial cells [14]; 10^−5 mol/L): able to elevate | effect of PAG on elevating Mn-SOD activity (myocardial cells [14]; with PAG): PAG also reversed | lipid peroxidation (MDA) (myocardial cells [15]): inhibited

CCCSC[C@H](N)C(=O)O [SPC, S-propyl-L-cysteine]
Cu—Zn SOD activity in cytoplasm (myocardial cells [14]; 10^−5 mol/L): able to elevate | effect of PAG on elevating Cu—Zn SOD activity (myocardial cells [14]; with PAG): PAG also reversed the effect | lipid peroxidation (MDA) (myocardial cells [15]): inhibited

CCCCCSC[C@H](N)C(=O)O [SPEC, S-pentyl-L-cysteine]
Cu—Zn SOD activity in cytoplasm (myocardial cells [14]; 10^−5 mol/L): able to elevate | effect of PAG on elevating Cu—Zn SOD activity (myocardial cells [14]; with PAG): PAG also reversed the effect
